Experimental findings from ChEMBL document CHEMBL5728238, “Inhibiting agents for Bruton's tyrosine kinase” (2021) are described below.

One may read the IC50 as the concentration at which inhibition is half-maximal.

The target in this assay is Tyrosine-protein kinase BTK (Homo sapiens, UniProt Q06187). The assay is described as follows: In Vitro Kinase Assay: The purpose of the BTK in vitro assay is to determine compound potency against BTK through the measurement of IC50. Compound inhibition is measured after monitoring the amount of phosphorylation of a fluorescein-labeled polyGAT peptide (Invitrogen PV3611) in the presence of active BTK enzyme (Upstate 14-552), ATP, and inhibitor. The BTK kinase reaction was done in a black 96 well plate (costar 3694). For a typical assay, a […] aliquot of a ATP/peptide master mix (final concentration; […], polyGAT 100 nM) in kinase buffer (10 mM Tris-HCl pH 7.5, 10 mM MgCl2, 200 μM Na3PO4, 5 mM DTT, 0.01% Triton X-100, and 0.2 mg/ml casein) is added to each well. Next, […] of a 4-fold, 40× compound titration in 100% DMSO solvent is added, followed by adding 15 μL of BTK enzyme mix in 1× kinase buffer (with a final concentration of 0.25 nM). The assay is incubated for 30 minutes before being stopped with 28 μL of a 50 mM EDTA solution. Aliquots (5 μL) of the kinase reaction are transferred to a low volume white 384 well plate (Corning 3674), and 5 μL of a 2× detection buffer (Invitrogen PV3574, with 4 nM Tb-PY20 antibody, Invitrogen PV3552) is added. The plate is covered and incubated for 45 minutes at room temperature. Time resolved fluorescence (TRF) on Molecular Devices M5 (332 nm excitation; 488 nm emission; 518 nm fluorescein emission) is measured. […].

SMILES strings stand for the structures.

Chain of Tyrosine-protein kinase BTK (Q06187 whole entry): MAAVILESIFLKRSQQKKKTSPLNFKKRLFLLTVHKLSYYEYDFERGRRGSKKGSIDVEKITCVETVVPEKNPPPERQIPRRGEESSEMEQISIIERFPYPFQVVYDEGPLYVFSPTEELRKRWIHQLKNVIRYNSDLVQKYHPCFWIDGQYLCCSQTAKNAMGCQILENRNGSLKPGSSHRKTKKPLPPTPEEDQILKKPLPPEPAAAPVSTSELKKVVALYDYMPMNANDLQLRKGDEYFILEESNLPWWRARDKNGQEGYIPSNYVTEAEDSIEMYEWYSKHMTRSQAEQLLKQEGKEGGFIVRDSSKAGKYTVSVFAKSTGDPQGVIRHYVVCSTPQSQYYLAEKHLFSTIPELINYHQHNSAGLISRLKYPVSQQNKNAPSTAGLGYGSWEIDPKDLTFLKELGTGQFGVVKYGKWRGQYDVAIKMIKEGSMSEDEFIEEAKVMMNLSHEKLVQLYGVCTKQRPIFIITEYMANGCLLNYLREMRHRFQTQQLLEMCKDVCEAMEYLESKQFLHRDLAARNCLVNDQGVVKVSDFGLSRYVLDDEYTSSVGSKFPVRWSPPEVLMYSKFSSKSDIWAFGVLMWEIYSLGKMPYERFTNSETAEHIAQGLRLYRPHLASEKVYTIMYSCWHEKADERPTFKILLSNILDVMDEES

In the case of `Cc1cc(-c2ncnc(Nc3cnn(C)c3)n2)ccc1CNC(=O)c1cc(C(C)(C)C)on1`, the IC50 was below 1 nM.

For the molecule `Cc1cc(-c2ncnc(Nc3cnn(C)c3)n2)ccc1CNC(=O)c1noc(C2[C@@H](C)[C@H]2C)n1` (some centres not stated), the half-inhibitory concentration (IC50) was below 1 nM.
